Assays:
[1] = molecular target: T1, TEL-ALK-C1156Y-BaF3 (Homo sapiens, UniProt Q9UM73, C1156Y, cells depend on it); test: Cell proliferation experiment (Cell-Titer GLO), TEL-ALK-C1156Y-BaF3; type: cell-based; conditions: 72 h, read-out: IC50 TEL-ALK C1156Y-BaF3
T1 construct: fused on or other part: TEL (ETV6) N-terminal oligomerising part fused before the ALK intracellular/kinase part; P41212 (Transcription factor ETV6)
Protocol: (§1) Compounds to be tested: Positive compound Ceritinib and the compounds obtained by the examples of the present invention.
(§2) Cell lines: Karpas-299 and NCI-H3122 which were purchased from the Nanjing kebai biotechnology Co. LTD; TEL-ALK-F1174L-BaF3, TEL-ALK-G1202R-BaF3, TEL-ALK-C1156Y-BaF3 and TEL-ALK-L1196M-BaF3 which were purchased from Hefei zhongkopruisheng biological medicine technology Co. LTD.
(§3) Method: Cells were seeded in 96-well plates for 24 h in growth media containing 10% fetalbovine serum (FBS) and cultured overnight at 37° C. The following day, serial dilutions of compounds or appropriate control were added to the designated wells, and cells were incubated at 37° C. for 72 h. A Cell Titer Glo assay (Promega) was then performed to determine the relative cell numbers. IC50 values were calculated by concentration-response curve fitting using a four-parameter analytical method with Graphpad 6.0. Drug inhibition rate (%)=100%−[OD(Compound)−OD(blank)]/[OD(vehicle)−OD(blank)]×100% Equation: […]

[2] = molecular target: T2, TEL-ALK-F1174L-BaF3 (Homo sapiens, UniProt Q9UM73, F1174L, cells depend on it); test: Cell proliferation experiment (Cell-Titer GLO), TEL-ALK-F1174L-BaF3; type: cell-based; conditions: 72 h, read-out: IC50 TEL-ALK F1174L-BaF3
T2 construct: fused on or other part: TEL (ETV6) N-terminal oligomerising part fused before the ALK intracellular/kinase part; P41212 (Transcription factor ETV6)
Protocol: as §1, §2, §3

[3] = tested on: NCI-H3122; test: Cell proliferation experiment (Cell-Titer GLO), NCI-H3122; type: cell-based; conditions: Homo sapiens, 72 h
Protocol: as §1, §2, §3

[4] = tested on: Karpas-299; test: Cell proliferation experiment (Cell-Titer GLO), Karpas-299; type: cell-based; conditions: Homo sapiens, 72 h
Protocol: as §1, §2, §3

[5] = molecular target: T3, TEL-ALK-G1202R-BaF3 (Homo sapiens, UniProt Q9UM73, G1202R, cells depend on it); test: Cell proliferation experiment (Cell-Titer GLO), TEL-ALK-G1202R-BaF3; type: cell-based; conditions: 72 h, read-out: IC50 TEL-ALK G1202R-BaF3
T3 construct: fused on or other part: TEL (ETV6) N-terminal oligomerising part fused before the ALK intracellular/kinase part; P41212 (Transcription factor ETV6)
Protocol: as §1, §2, §3

[6] = molecular target: T4, ALK L1196M (Homo sapiens, UniProt Q9UM73, L1196M); test: LanthaScreen Eu Kinase Binding Assay (TR-FRET) on ALK mutant
T4 construct: purchased Life Technology
From the text: Meanwhile, The LanthaScreen® Eu Kinase Binging Assay (TR-FRET) method was used for determining ALK Mutants (such as ALK L1196M) inhibitory activity IC50. LanthaScreen Eu kinase binding experiment detected Alexa Fluor conjugate or kinase “tracer” binding by adding Eu labeled antibodies or anti-label antibodies. The combination of tracer and antibody with kinase leads to a high level of FRET, whereas the use of kinase inhibitors in place of tracer may cause FRET loss.
(§4) The kinase activity assay was determined by using kinase assay panel (Life Technology) and the result was in table 1.

[7] = molecular target: T5, TEL-ALK-L1196M-BaF3 (Homo sapiens, UniProt Q9UM73, L1196M, cells depend on it); test: Cell proliferation experiment (Cell-Titer GLO), TEL-ALK-L1196M-BaF3; type: cell-based; conditions: 72 h, read-out: IC50 TEL-ALK L1196M-BaF3
T5 construct: fused on or other part: TEL (ETV6) N-terminal oligomerising part fused before the ALK intracellular/kinase part; P41212 (Transcription factor ETV6)
Protocol: as §2
Method: Cells were seeded in 96-well plates for 24 h in growth media containing 10% fetalbovine serum (FBS) and cultured overnight at 37° C. The following day, serial dilutions of compounds or appropriate control were added to the designated wells, and cells were incubated at 37° C. for 72 h. A Cell Titer Glo assay (Promega) was then performed to determine the relative cell numbers. IC50 values were calculated by concentration-response curve fitting using a four-parameter analytical method with Graphpad 6.0.

[8] = molecular target: T6, Wild-Type ALK (Homo sapiens, UniProt Q9UM73); test: Z'-LYTE (FRET) ALK kinase inhibitory activity; type: biochemical
T6 construct: purchased Life Technology
Protocol: as §4

[9] = tested on: NCI-H2228 tumor cells; test: Subcutaneous NCI-H2228 lung cancer xenograft model; type: in vivo, BALB/C nude mice
Protocol: BALB/C nude mice were inoculated at the right flank with NCI-H2228 tumor cells to establish the human Lung cancer xenograft model. […] The drug was administered for 14 days and then discontinued for two weeks. The therapeutic effect was evaluated by calculating the relative tumor proliferation rate T/C (%), and the tolerability of treatment was evaluated by the body weight changes and death.
Tumor volume (TV) were measured twice per week in two dimensions using a caliper, and the volume were expressed in mm^3 using the formula: V=0.5 a×b^2 where a and b are the long and short diameters of the tumor, respectively.
Relative tumor volume RTV=Vt/V0, Vt=tumor volume of the drug-treated group on a given day of the study, V0=tumor volume of the drug-treated group on the initial day of dosing.
The T/C value (%) is an indicator of tumor response to treatment, and one of commonly used anti-tumor activity endpoint; T/C %=TRTV/CRTV×100% Relative Tumor Growth Inhibition; % TGI=(1−T/C)×100%;

[10] = tested on: zebrafish iridophore pigment cells; test: Phenotypic screening of zebrafish: effect on iridophore pigment cells; type: in vivo, Zebrafish (Danio rerio); conditions: 15 μM
From the text: Zebrafish (Danio rerio) is emerging as a predictive vertebrate animal model for in vivo assessment of drug efficacy, toxicity and safety. An important advantage of the zebrafish animal model is that the morphological and molecular basis of tissues and organs is either identical or similar to other vertebrates, including humans. The sequence and presumed function of many genes that are important for vertebrates are conserved in the zebrafish and the homology is as high as 85%. It has been shown that loss-of-function alleles for leukocyte tyrosine kinase (Ltk), the sister kinase to ALK, lack iridophores in zebrafish (Lopes, S. S., Yang, X., et al. (2008). Leukocyte tyrosine kinase functions in pigment cell development. PLoS Genet, 4.). Iridophores are neural crest-derived pigment cells that are clearly visible as shiny silver cells in the developing zebrafish embryo which distribute in the head, eyes, the lateral spine. ALK and LTK are sister kinase.
Therefore, using this principle, we investigated the effect of the compounds on normal zebrafish iridophore pigment cells to explore the compound's anti-ALK activity in vivo.
Method: Fish eggs of 6 hpf (hours post impurity) were randomly divided into groups. Then, subjects with different concentrations were added and the images were collected at 3 dpf (days post impurity). Then, the IOD (integrated option density) values of zebrafish dorsal iridophore pigment cells from the release pore to the caudal position were analyzed using ImageJ software. The Graphpad prism6.0 was used to conduct statistical analysis on Dunnett's t-test, and p<0.05 indicates statistical difference. The calculation formula of iridophore pigment inhibition rate is as follows: Inhibition rate (%)=[1−IOD(Compound)/IOD(vehicle)]×100%

T5 sequence (Q9UM73 whole entry L1196M, the tested form may be a part): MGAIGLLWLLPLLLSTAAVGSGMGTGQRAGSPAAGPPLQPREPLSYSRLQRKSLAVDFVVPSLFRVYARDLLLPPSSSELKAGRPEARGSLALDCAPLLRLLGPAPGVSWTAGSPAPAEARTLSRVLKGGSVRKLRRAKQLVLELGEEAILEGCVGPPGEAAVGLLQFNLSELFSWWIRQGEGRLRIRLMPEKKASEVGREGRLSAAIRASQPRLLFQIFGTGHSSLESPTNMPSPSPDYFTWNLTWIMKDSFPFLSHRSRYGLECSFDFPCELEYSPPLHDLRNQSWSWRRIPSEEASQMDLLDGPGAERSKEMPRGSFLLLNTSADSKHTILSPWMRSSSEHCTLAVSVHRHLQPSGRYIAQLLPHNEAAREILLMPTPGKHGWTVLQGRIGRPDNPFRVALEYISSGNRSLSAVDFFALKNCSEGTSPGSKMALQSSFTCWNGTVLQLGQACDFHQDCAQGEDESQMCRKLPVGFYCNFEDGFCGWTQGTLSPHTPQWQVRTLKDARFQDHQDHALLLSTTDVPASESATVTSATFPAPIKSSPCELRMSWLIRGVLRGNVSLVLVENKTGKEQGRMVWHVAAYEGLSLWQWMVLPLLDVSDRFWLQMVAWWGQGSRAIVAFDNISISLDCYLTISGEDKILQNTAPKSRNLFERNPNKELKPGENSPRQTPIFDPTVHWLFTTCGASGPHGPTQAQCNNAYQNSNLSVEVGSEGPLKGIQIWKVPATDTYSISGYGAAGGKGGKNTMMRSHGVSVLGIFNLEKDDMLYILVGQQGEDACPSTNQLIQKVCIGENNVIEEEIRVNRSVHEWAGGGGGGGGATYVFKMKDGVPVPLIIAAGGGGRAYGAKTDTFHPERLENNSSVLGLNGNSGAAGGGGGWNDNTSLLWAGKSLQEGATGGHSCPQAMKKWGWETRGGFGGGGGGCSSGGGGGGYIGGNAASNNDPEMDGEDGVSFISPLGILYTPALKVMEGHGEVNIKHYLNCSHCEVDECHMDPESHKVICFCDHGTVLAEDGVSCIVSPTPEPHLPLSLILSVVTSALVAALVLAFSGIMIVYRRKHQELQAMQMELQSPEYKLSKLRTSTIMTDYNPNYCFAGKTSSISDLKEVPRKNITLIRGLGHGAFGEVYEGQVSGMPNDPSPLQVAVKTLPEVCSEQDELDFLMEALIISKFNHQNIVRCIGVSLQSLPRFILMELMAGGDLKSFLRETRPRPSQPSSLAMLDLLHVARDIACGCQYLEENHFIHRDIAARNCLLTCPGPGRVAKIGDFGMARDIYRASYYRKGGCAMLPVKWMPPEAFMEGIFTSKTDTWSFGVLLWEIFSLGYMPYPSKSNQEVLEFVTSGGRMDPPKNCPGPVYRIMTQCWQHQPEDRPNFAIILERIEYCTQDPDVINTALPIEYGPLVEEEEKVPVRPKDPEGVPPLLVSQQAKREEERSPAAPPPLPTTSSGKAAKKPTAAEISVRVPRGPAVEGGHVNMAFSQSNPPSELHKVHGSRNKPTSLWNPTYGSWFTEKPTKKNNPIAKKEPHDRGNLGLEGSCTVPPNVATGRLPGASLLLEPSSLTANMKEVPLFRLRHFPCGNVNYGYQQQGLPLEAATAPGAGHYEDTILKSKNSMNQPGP
T1 sequence (Q9UM73 whole entry C1156Y, the tested form may be a part): as the sequence (Q9UM73 whole entry L1196M, the tested form may be a part) above, with C1156Y, M1196L counted along it
T2 sequence (Q9UM73 whole entry F1174L, the tested form may be a part): as the sequence (Q9UM73 whole entry L1196M, the tested form may be a part) above, with F1174L, M1196L counted along it
T3 sequence (Q9UM73 whole entry G1202R, the tested form may be a part): as the sequence (Q9UM73 whole entry L1196M, the tested form may be a part) above, with M1196L, G1202R counted along it
T6 sequence (Q9UM73 19-1620): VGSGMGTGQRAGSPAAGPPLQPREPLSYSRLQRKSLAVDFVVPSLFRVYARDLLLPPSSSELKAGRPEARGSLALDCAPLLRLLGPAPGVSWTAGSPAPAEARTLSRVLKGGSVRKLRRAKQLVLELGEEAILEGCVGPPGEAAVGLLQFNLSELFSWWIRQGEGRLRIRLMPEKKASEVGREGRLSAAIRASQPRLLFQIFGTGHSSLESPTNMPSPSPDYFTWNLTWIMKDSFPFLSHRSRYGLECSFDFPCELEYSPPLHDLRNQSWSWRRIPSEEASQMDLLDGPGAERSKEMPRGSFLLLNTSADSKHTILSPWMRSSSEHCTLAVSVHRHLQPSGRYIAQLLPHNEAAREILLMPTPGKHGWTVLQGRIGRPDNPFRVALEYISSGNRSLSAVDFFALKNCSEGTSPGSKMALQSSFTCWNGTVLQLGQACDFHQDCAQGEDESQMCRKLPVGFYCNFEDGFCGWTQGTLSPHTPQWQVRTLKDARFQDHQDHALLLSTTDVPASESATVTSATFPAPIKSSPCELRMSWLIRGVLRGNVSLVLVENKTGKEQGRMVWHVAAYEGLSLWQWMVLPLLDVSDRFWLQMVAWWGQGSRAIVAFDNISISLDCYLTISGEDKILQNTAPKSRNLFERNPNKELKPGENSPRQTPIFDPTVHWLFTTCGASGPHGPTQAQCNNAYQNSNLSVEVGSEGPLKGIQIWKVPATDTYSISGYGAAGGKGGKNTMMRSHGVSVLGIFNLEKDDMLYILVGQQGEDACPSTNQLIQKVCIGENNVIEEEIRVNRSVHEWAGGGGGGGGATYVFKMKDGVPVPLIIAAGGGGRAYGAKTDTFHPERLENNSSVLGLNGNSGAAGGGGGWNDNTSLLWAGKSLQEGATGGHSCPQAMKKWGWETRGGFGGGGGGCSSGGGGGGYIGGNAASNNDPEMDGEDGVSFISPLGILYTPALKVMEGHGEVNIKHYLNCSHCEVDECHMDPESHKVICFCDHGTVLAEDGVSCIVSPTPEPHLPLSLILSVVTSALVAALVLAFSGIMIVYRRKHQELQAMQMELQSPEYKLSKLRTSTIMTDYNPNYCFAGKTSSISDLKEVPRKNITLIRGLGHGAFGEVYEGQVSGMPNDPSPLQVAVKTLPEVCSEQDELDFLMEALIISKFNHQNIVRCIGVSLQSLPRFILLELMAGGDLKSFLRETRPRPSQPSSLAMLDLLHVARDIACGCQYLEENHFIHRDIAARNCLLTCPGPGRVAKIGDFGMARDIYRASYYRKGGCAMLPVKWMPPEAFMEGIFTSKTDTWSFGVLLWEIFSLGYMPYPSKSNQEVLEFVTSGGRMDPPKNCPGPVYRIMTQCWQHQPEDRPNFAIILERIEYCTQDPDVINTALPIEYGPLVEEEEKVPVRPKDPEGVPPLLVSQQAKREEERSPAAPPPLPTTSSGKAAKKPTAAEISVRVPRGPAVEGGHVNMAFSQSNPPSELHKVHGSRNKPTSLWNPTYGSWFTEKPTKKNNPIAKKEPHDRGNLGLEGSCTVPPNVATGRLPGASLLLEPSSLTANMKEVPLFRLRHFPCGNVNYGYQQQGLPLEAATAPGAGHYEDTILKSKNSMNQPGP
T4 sequence (Q9UM73 19-1620 L1196M): as the sequence (Q9UM73 19-1620) above, with L1178M counted along it

Structure (SMILES)	GI50 [1]	GI50 [2]	IC50 [3]	IC50 [4]	GI50 [5]	IC50 [6]	GI50 [7]	IC50 [8]	TGI ([9]; 30 mg/kg PO QD 14 days, at 14 days after administration)	tumor volume ([9]; 30 mg/kg PO QD 14 days, at 14 days after administration (first day after administration end))	TGI ([9]; 30 mg/kg PO QD 14 days, end of the experiment (15 days after the administration))	anti-tumor effect ([9]; 30 mg/kg, once a day, continuously for 14 days)	IOD ([10]; added at 6 hpf, images at 3 dpf)	inhibition at 15 µM ([10]; Danio rerio, iridophore pigment, 3 dpf, read-out: Inhibition rate %)
Cc1cc(Nc2ncc(C(F)(F)F)c(Nc3cn(C)nc3S(=O)(=O)C(C)C)n2)c2c(c1C1CCNCC1)C[C@@H](C)O2 [REX-D3, (R)—N^2-(2,5-dimethyl-4-(piperidin-4-yl)-2,3-dihydrobenzofuran-7-yl)-N^4-(3-(isopropylsulfonyl)-1-methyl-1H-pyrazol-4-yl)-5-(trifluoromethyl)pyrimidine-2,4-diamine]	10.5 nM	< 10 nM	10.8 nM	< 20 nM	< 140 nM	1.25 nM	10.4 nM	15.9 nM	–	–	–	–	–	–
Cc1cc(Nc2ncc(C(F)(F)F)c(Nc3cn(C)nc3S(=O)(=O)C(C)C)n2)c2c(c1C1CCN(C)CC1)C[C@@H](C)O2 [REX-D4, (R)—N^2-(2,5-dimethyl-4-(1-methylpiperidin-4-yl)-2,3-dihydrobenzofuran-7-yl)-N^4-(3-(isopropylsulfonyl)-1-methyl-1H-pyrazol-4-yl)-5-(trifluoromethyl)pyrimidine-2,4-diamine]	10.5 nM	< 10 nM	10.6 nM	< 10 nM	< 50 nM	0.565 nM	10.5 nM	5.9 nM	–	–	–	–	–	–
Cc1cc(Nc2ncc(Cl)c(Nc3ccccc3S(=O)(=O)C(C)C)n2)c(OC(C)C)cc1C1CCNCC1 [Ceritinib, reference compound]	36.5 nM	36.1 nM	40.7 nM	40 to 85 nM	> 180 nM	–	–	–	94.7%	17 mm^3	95.3%	significant anti-tumor effect	35.5 ± 7.0	95%
Cc1cc(Nc2ncc(Cl)c(Nc3cn(C)nc3S(=O)(=O)C(C)C)n2)c2c(c1C1CCN(CCO)CC1)C[C@@H](C)O2 [REX-D11, (R)-2-(4-(7-((5-chloro-4-((3-(isopropylsulfonyl)-1-methyl-1H-pyrazol-4-yl)amino)pyrimidin-2-yl)amino)-2,5-dimethyl-2,3-dihydrobenzofuran-4-yl)piperidin-1-yl)ethanol]	–	10.7 nM	10.6 nM	–	> 180 nM	< 0.5 nM	–	8.46 nM	–	–	–	–	–	–
Cc1cc(Nc2ncc(Cl)c(Nc3cn(C)nc3S(=O)(=O)C(C)C)n2)c2c(c1C1CCNCC1)C[C@@H](C)O2 [REX-D1, (R)-5-chloro-N^2-(2,5-dimethyl-4-(piperidin-4-yl)-2,3-dihydrobenzofuran-7-yl)-N^4-(3-(isopropylsulfonyl)-1-methyl-1H-pyrazol-4-yl)pyrimidine-2,4-diamine]	10.5 nM	< 10 nM	10.6 nM	< 20 nM	> 180 nM	1.34 nM	10.5 nM	6.82 nM	–	–	–	–	–	–

Now from value to compound, other results behind:

GI50 [1]	GI50 [2]	IC50 [3]	IC50 [4]	GI50 [5]	IC50 [6]	GI50 [7]	IC50 [8]	Structure (SMILES)	TGI ([9]; 30 mg/kg PO QD 14 days, at 14 days after administration)	tumor volume ([9]; 30 mg/kg PO QD 14 days, at 14 days after administration (first day after administration end))	TGI ([9]; 30 mg/kg PO QD 14 days, end of the experiment (15 days after the administration))	anti-tumor effect ([9]; 30 mg/kg, once a day, continuously for 14 days)	IOD ([10]; added at 6 hpf, images at 3 dpf)	inhibition at 15 µM ([10]; Danio rerio, iridophore pigment, 3 dpf, read-out: Inhibition rate %)
–	< 200 nM	57.2 nM	–	> 180 nM	3.86 nM	–	19.3 nM	Cc1cc(Nc2ncc(Cl)c(Nc3cn(C(C)C)nc3S(=O)(=O)C(C)C)n2)c2c(c1C1CCNCC1)C[C@@H](C)O2 [REX-D32, (R)-5-chloro-N^2-(2,5-dimethyl-4-(piperidin-4-yl)-2,3-dihydrobenzofuran-7-yl)-N^4-(1-isopropyl-3-(isopropylsulfonyl)-1H-pyrazol-4-yl)pyrimidine-2,4-diamine]	–	–	–	–	–	–
–	26.1 nM	13.9 nM	–	> 180 nM	1.12 nM	–	9.4 nM	Cc1cc(Nc2ncc(Cl)c(Nc3cn(C4CC4)nc3S(=O)(=O)C(C)C)n2)c2c(c1C1CCN(C)CC1)C[C@@H](C)O2 [REX-D34, (R)-5-chloro-N^4-(1-cyclopropyl-3-(isopropylsulfonyl)-1H-pyrazol-4-yl)-N^2-(2,5-dimethyl-4-(1-methylpiperidin-4-yl)-2,3-dihydrobenzofuran-7-yl)pyrimidine-2,4-diamine]	–	–	–	–	–	–
–	80.4 nM	40.3 nM	–	> 180 nM	1.99 nM	–	13.9 nM	Cc1cc(Nc2ncc(Cl)c(Nc3cn(C(C)C)nc3S(=O)(=O)C(C)C)n2)c2c(c1C1CCN(C)CC1)C[C@@H](C)O2 [REX-D35, (R)-5-chloro-N^2-(2,5-dimethyl-4-(1-methylpiperidin-4-yl)-2,3-dihydrobenzofuran-7-yl)-N^4-(1-isopropyl-3-(isopropylsulfonyl)-1H-pyrazol-4-yl)pyrimidine-2,4-diamine]	–	–	–	–	–	–
–	33.4 nM	11.7 nM	–	> 180 nM	2 nM	–	15.5 nM	CCn1cc(Nc2nc(Nc3cc(C)c(C4CCNCC4)c4c3O[C@H](C)C4)ncc2Cl)c(S(=O)(=O)C(C)C)n1 [REX-D33, (R)-5-chloro-N^2-(2,5-dimethyl-4-(piperidin-4-yl)-2,3-dihydrobenzofuran-7-yl)-N^4-(1-ethyl-3-(isopropylsulfonyl)-1H-pyrazol-4-yl)pyrimidine-2,4-diamine]	–	–	–	–	–	–
–	22.4 nM	11.4 nM	–	> 180 nM	0.55 nM	–	9.28 nM	CCn1cc(Nc2nc(Nc3cc(C)c(C4CCN(C)CC4)c4c3O[C@H](C)C4)ncc2Cl)c(S(=O)(=O)C(C)C)n1 [REX-D36, (R)-5-chloro-N^2-(2,5-dimethyl-4-(1-methylpiperidin-4-yl)-2,3-dihydrobenzofuran-7-yl)-N^4-(1-ethyl-3-(isopropylsulfonyl)-1H-pyrazol-4-yl)pyrimidine-2,4-diamine]	–	–	–	–	–	–
–	11.2 nM	10.7 nM	–	> 180 nM	1.1 nM	–	15.7 nM	Cc1cc(Nc2ncc(Cl)c(Nc3cn(C)nc3S(=O)(=O)C(C)C)n2)c2c(c1C1CCN(C(C)C)CC1)C[C@@H](C)O2 [REX-D14, (R)-5-chloro-N^2-(4-(1-isopropylpiperidin-4-yl)-2,5-dimethyl-2,3-dihydrobenzofuran-7-yl)-N^4-(3-(isopropylsulfonyl)-1-methyl-1H-pyrazol-4-yl)pyrimidine-2,4-diamine]	–	–	–	–	–	–

Reference: patent US10710993B2, “Benzofuran pyrazole amine kinase inhibitor” (Hangzhou REX Pharmaceutical Co., LTD., priority 2016, dated 2020)
